Like-named read-outs stand apart in the source and are kept apart here.
Tested on: wild‐type BCG cells
Format: cell-based, M. bovis BCG

O=C(Oc1ccc(Cl)cc1)c1ccc(N2CCOCC2)c([N+](=O)[O-])c1 [GDI‐5755]
ClpB upregulation (2‐day treated cells): 1.56 fold | detected proteome downregulated (2‐day treatment, 2×MIC): ~ 37.9% | ClpB upregulation (3‐day treated cells): 1.47 fold | Mean_Ratio (GDI5755_3d vs DMSO_3d) (3 d): 0.7 | number of proteins accumulated (upregulated) (Day 2): 216 proteins | proteome remaining downregulated into the third day (Day 2 and Day 3): 29.1% | number of proteins accumulated (upregulated) (Day 3): 188 proteins | EthA upregulation (GDI‐5755‐treated cells): > 1.4 fold | Mean_Ratio GDI5755_3d: DMSO_3d (Table S5, BCG_0001 Chromosomal replication initiator protein DnaA): 0.8 | Mean_Ratio GDI5755_3d: DMSO_3d (Table S5, BCG_0066 Fatty-acid-coa ligase fadD34): 0.7 | Mean_Ratio GDI5755_3d: DMSO_3d (Table S5, BCG_0101c Serine hydroxy methyltransferase): 0.8 | Mean_Ratio GDI5755_3d: DMSO_3d (Table S5, BCG_0207 MCE-family protein mce1B): 0.7 | Mean_Ratio GDI5755_3d: DMSO_3d (Table S5, BCG_0208 MCE-family protein mce1C): 0.8 | Mean_Ratio GDI5755_3d: DMSO_3d (Table S5, BCG_0209 MCE-family protein mce1D): 0.7 | Mean_Ratio GDI5755_3d: DMSO_3d (Table S5, BCG_0210 MCE-family lipoprotein lprK): 0.7 | Mean_Ratio GDI5755_3d: DMSO_3d (Table S5, BCG_0211 MCE-family protein mce1F): 0.7 | Mean_Ratio GDI5755_3d: DMSO_3d (Table S5, BCG_0442 Probable fatty-acid-CoA ligase fadD30): 0.7 | Mean_Ratio GDI5755_3d: DMSO_3d (Table S5, BCG_0495c Enoyl-CoA hydratase echA2): 0.5 | Mean_Ratio GDI5755_3d: DMSO_3d (Table S5, BCG_0546c cmaA2): 0.7 | Mean_Ratio GDI5755_3d: DMSO_3d (Table S5, BCG_0547c UPF0336 protein): 0.8 | Mean_Ratio GDI5755_3d: DMSO_3d (Table S5, BCG_0591c Possible oxidoreductase): 0.8 | Mean_Ratio GDI5755_3d: DMSO_3d (Table S5, BCG_0692c Methoxy mycolic acid synthase 3 mmaA3): 0.6 | Mean_Ratio GDI5755_3d: DMSO_3d (Table S5, BCG_0693c Methoxy mycolic acid synthase 2 mmaA2): 0.7 | Mean_Ratio GDI5755_3d: DMSO_3d (Table S5, BCG_1048 UTP--glucose-1-phosphate uridylyltransferase): 0.7 | Mean_Ratio GDI5755_3d: DMSO_3d (Table S5, BCG_1203c Probable enoyl-CoA hydratase echA11): 0.7 | Mean_Ratio GDI5755_3d: DMSO_3d (Table S5, BCG_1311c Uncharacterized protein): 0.8 | Mean_Ratio GDI5755_3d: DMSO_3d (Table S5, BCG_1534 Macrolide-transport ATP-binding protein ABC transporter): 0.8 | Mean_Ratio GDI5755_3d: DMSO_3d (Table S5, BCG_1579c Mycocerosic acid synthase-like polyketide synthase): 0.7 | Mean_Ratio GDI5755_3d: DMSO_3d (Table S5, BCG_1619c Possible inv protein): 0.7 | Mean_Ratio GDI5755_3d: DMSO_3d (Table S5, BCG_1699 Possible chalcone synthase pks10): 0.8 | Mean_Ratio GDI5755_3d: DMSO_3d (Table S5, BCG_1896 Alanine and proline-rich secreted protein Apa): 0.6 | Mean_Ratio GDI5755_3d: DMSO_3d (Table S5, BCG_1922c Chorismate mutase): 0.7 | Mean_Ratio GDI5755_3d: DMSO_3d (Table S5, BCG_1923c Mycolyltransferase Ag85B): 0.7 | Mean_Ratio GDI5755_3d: DMSO_3d (Table S5, BCG_1962 Probable lipase lipD): 0.6 | Mean_Ratio GDI5755_3d: DMSO_3d (Table S5, BCG_2254 ER-bound oxygenase mpaB): 0.8 | Mean_Ratio GDI5755_3d: DMSO_3d (Table S5, BCG_2260 Malonyl CoA-acyl carrier protein transacylase fabD): 0.7 | Mean_Ratio GDI5755_3d: DMSO_3d (Table S5, BCG_2310 Probable aminotransferase): 0.8 | Mean_Ratio GDI5755_3d: DMSO_3d (Table S5, BCG_2317 Cutinase): 0.7 | Mean_Ratio GDI5755_3d: DMSO_3d (Table S5, BCG_2546c Putative peptidoglycan hydrolase): 0.8 | Mean_Ratio GDI5755_3d: DMSO_3d (Table S5, BCG_2550 ERCC4 domain-containing protein): 0.7 | Mean_Ratio GDI5755_3d: DMSO_3d (Table S5, BCG_2886c Possible penicillin-binding lipoprotein): 0.6 | Mean_Ratio GDI5755_3d: DMSO_3d (Table S5, BCG_2977 Methyltransferase FkbM domain-containing protein): 0.7 | Mean_Ratio GDI5755_3d: DMSO_3d (Table S5, BCG_3009c 3-isopropylmalate dehydratase large subunit): 0.6 | Mean_Ratio GDI5755_3d: DMSO_3d (Table S5, BCG_3111 alcohol dehydrogenase adhD): 0.8 | Mean_Ratio GDI5755_3d: DMSO_3d (Table S5, BCG_3296 LytR family transcriptional regulator): 0.8 | Mean_Ratio GDI5755_3d: DMSO_3d (Table S5, BCG_3375 Possible acid phosphatase): 0.8 | Mean_Ratio GDI5755_3d: DMSO_3d (Table S5, BCG_3658 Probable conserved lipoprotein lpqF): 0.8 | Mean_Ratio GDI5755_3d: DMSO_3d (Table S5, BCG_3731c Possible chalcone synthase pks11): 0.7 | Mean_Ratio GDI5755_3d: DMSO_3d (Table S5, BCG_3772 Lipid II isoglutaminyl synthase subunit MurT): 0.7 | Mean_Ratio GDI5755_3d: DMSO_3d (Table S5, BCG_3866c Mycolyltransferase Ag85A): 0.8 | Mean_Ratio GDI5755_3d: DMSO_3d (Table S5, BCG_3882c Trehalose-2-sulfate acyltransferase PapA2): 0.8 | Mean_Ratio GDI5755_3d: DMSO_3d (Table S6, BCG_0130 decarboxylase): 1.5 | Mean_Ratio GDI5755_3d: DMSO_3d (Table S6, BCG_0289c Heat stress-induced ribosome-binding protein A, acr2): 3.9 | Mean_Ratio GDI5755_3d: DMSO_3d (Table S6, BCG_0347c Acetoacetate decarboxylase): 1.3 | Mean_Ratio GDI5755_3d: DMSO_3d (Table S6, BCG_0389 Chaperone protein DnaK): 1.5 | Mean_Ratio GDI5755_3d: DMSO_3d (Table S6, BCG_0390 Protein GrpE/HSP-70 cofactor): 1.4 | Mean_Ratio GDI5755_3d: DMSO_3d (Table S6, BCG_0391 Chaperone protein DnaJ): 1.5 | Mean_Ratio GDI5755_3d: DMSO_3d (Table S6, BCG_0422c Chaperone protein ClpB): 1.5 | Mean_Ratio GDI5755_3d: DMSO_3d (Table S6, BCG_0463c Uncharacterized protein): 1.4 | Mean_Ratio GDI5755_3d: DMSO_3d (Table S6, BCG_0726c Possible conserved membrane protein mmpS5): 1.4 | Mean_Ratio GDI5755_3d: DMSO_3d (Table S6, BCG_0774 Possible protease IV sppA (Endopeptidase IV)): 1.4 | Mean_Ratio GDI5755_3d: DMSO_3d (Table S6, BCG_0909 Cyclase): 1.3 | Mean_Ratio GDI5755_3d: DMSO_3d (Table S6, BCG_0993 Bifunctional 2-hydroxyhepta-2,4-diene-1,7-dioate isomerase): 1.3 | Mean_Ratio GDI5755_3d: DMSO_3d (Table S6, BCG_1028c Probable acetyl-/propionyl-coa carboxylase, accD2): 1.4 | Mean_Ratio GDI5755_3d: DMSO_3d (Table S6, BCG_1037 Two-component sensor kinase MprB): 1.2
